Columns and labels:
[1] = system: wheat (winter wheat); assay: Test C postemergence; format: in vivo, Triticum aestivum
Procedure, shortened: (§1)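 Test chemicals in a non-phytotoxic solvent mixture with surfactant were applied to pots of plants at 2 to 18 cm (1- to 4-leaf stage) for postemergence treatment, grown in a peat-based medium with vermiculite, starter nutrients and dolomitic limestone. Preemergence treatment was to seeds freshly planted in loam soil mixed with sand.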

[2] = system: waterhemp; assay: Test C postemergence; format: in vivo, Amaranthus rudis
Procedure, shortened: as §1

[3] = system: barnyardgrass; assay: Test B flooded paddy test; format: in vivo, Echinochloa crus-galli; details: 250 g ai/ha, applied to paddy water at 2-leaf stage, visual rating after 13 to 15 d, scale 0 (no effect) to 100 (complete control)
Procedure, shortened: (§2)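 Pots were flooded to 3 cm above the soil at treatment, and compounds were applied directly into the paddy water. That depth was held throughout. After 13 to 15 d in a greenhouse, plants were rated visually against untreated controls.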

[4] = system: sedge, umbrella; assay: Test B flooded paddy test; format: in vivo, Cyperus difformis; details: 250 g ai/ha, applied to paddy water at 2-leaf stage, visual rating after 13 to 15 d, scale 0 (no effect) to 100 (complete control)
Procedure, shortened: as §2

[5] = system: lambsquarters; assay: Test C postemergence; format: in vivo, Chenopodium album
Procedure, shortened: as §1

[6] = system: oilseed rape; assay: Test C postemergence; format: in vivo, Brassica napus
Procedure, shortened: as §1

[7] = system: oat, wild; assay: Test C postemergence; format: in vivo, Avena fatua
Procedure, shortened: as §1

[8] = system: corn; assay: Test C postemergence; format: in vivo, Zea mays
Procedure, shortened: as §1

[9] = system: nutsedge, yellow; assay: Test C postemergence; format: in vivo, Cyperus esculentus
Procedure, shortened: as §1

[10] = system: ryegrass, Italian; assay: Test C postemergence; format: in vivo, Lolium multiflorum
Procedure, shortened: as §1

[11] = system: galium; assay: Test C postemergence; format: in vivo, Galium aparine
Procedure, shortened: as §1

[12] = system: pigweed; assay: Test A preemergence; format: in vivo, Amaranthus retroflexus; details: 0 to 100 scale (0 no effect, 100 complete control)
Procedure, shortened: (§3)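 Test chemicals, formulated in a surfactant-containing non-phytotoxic solvent mixture, are applied either as a directed soil spray to newly planted seeds or as a postemergence application to plants at the one- to two-leaf stage (2–10 cm). All plants grow in a loam soil and sand blend.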

[13] = system: foxtail, giant; assay: Test C postemergence; format: in vivo, Setaria faberii
Procedure, shortened: as §1

[14] = system: blackgrass; assay: Test C postemergence; format: in vivo, Alopecurus myosuroides
Procedure, shortened: as §1

[15] = system: pigweed; assay: Test A postemergence; format: in vivo, Amaranthus retroflexus; details: 0 to 100 scale (0 no effect, 100 complete control), approx. 10 d
Procedure, shortened: as §3

[16] = system: soybean; assay: Test C postemergence; format: in vivo, Glycine max
Procedure, shortened: as §1

[17] = system: chickweed; assay: Test C postemergence; format: in vivo, Stellaria media
Procedure, shortened: as §1

[18] = system: barnyardgrass; assay: Test C postemergence; format: in vivo, Echinochloa crus-galli
Procedure, shortened: as §1

[19] = system: wheat; assay: Test A postemergence; format: in vivo, Triticum aestivum; details: 0 to 100 scale (0 no effect, 100 complete control), approx. 10 d
Procedure, shortened: as §3

[20] = system: foxtail, giant; assay: Test A postemergence; format: in vivo, Setaria faberii; details: 0 to 100 scale (0 no effect, 100 complete control), approx. 10 d
Procedure, shortened: as §3

CCCOc1nc(-c2ccccc2)nn1Cc1ccnc(C(F)(F)F)c1 [Compound 33]
35: Plant response rating (scale of 0 to 100 where 0 is no effect and 100 is complete control) ([16]; 62 g ai/ha)
60: Plant response rating (scale of 0 to 100 where 0 is no effect and 100 is complete control) ([6]; Oilsee Rape, 250 g ai/ha) | Plant response rating (scale of 0 to 100 where 0 is no effect and 100 is complete control) ([11]; 62 g ai/ha) | Plant response rating (scale of 0 to 100 where 0 is no effect and 100 is complete control) ([17]; 62 g ai/ha) | Plant response rating (scale of 0 to 100 where 0 is no effect and 100 is complete control) ([17]; 125 g ai/ha)
65: Plant response rating (scale of 0 to 100 where 0 is no effect and 100 is complete control) ([16]; 250 g ai/ha)
30: Plant response rating (scale of 0 to 100 where 0 is no effect and 100 is complete control) ([8]; 62 g ai/ha) | Plant response rating, Wheat ([19]; 500 g ai/ha)
15: Plant response rating (scale of 0 to 100 where 0 is no effect and 100 is complete control) ([9]; 250 g ai/ha) | Plant response rating (scale of 0 to 100 where 0 is no effect and 100 is complete control) ([10]; 250 g ai/ha) | Plant response rating (scale of 0 to 100 where 0 is no effect and 100 is complete control) ([13]; 125 g ai/ha) | Plant response rating (scale of 0 to 100 where 0 is no effect and 100 is complete control) ([13]; 250 g ai/ha)
10: Plant response rating (scale of 0 to 100 where 0 is no effect and 100 is complete control) ([7]; 31 g ai/ha) | Plant response rating (scale of 0 to 100 where 0 is no effect and 100 is complete control) ([7]; 62 g ai/ha) | Plant response rating (scale of 0 to 100 where 0 is no effect and 100 is complete control) ([9]; 62 g ai/ha) | Plant response rating (scale of 0 to 100 where 0 is no effect and 100 is complete control) ([9]; 125 g ai/ha) | Plant response rating (scale of 0 to 100 where 0 is no effect and 100 is complete control) ([13]; 31 g ai/ha) | Plant response rating (scale of 0 to 100 where 0 is no effect and 100 is complete control) ([13]; 62 g ai/ha) | Plant response rating (scale of 0 to 100 where 0 is no effect and 100 is complete control) ([14]; 125 g ai/ha) | Plant response rating (scale of 0 to 100 where 0 is no effect and 100 is complete control) ([14]; 250 g ai/ha) | Plant response rating (scale of 0 to 100 where 0 is no effect and 100 is complete control) ([18]; 31 g ai/ha)
85: Plant response rating, Sedge, Umbrella, Flood [4] | Plant response rating (scale of 0 to 100 where 0 is no effect and 100 is complete control) ([5]; 62 g ai/ha) | Plant response rating (scale of 0 to 100 where 0 is no effect and 100 is complete control) ([5]; 125 g ai/ha)
95: Plant response rating (scale of 0 to 100 where 0 is no effect and 100 is complete control) ([2]; 62 g ai/ha) | Plant response rating (scale of 0 to 100 where 0 is no effect and 100 is complete control) ([2]; 125 g ai/ha) | Plant response rating (scale of 0 to 100 where 0 is no effect and 100 is complete control) ([2]; 250 g ai/ha)
55: Plant response rating (scale of 0 to 100 where 0 is no effect and 100 is complete control) ([6]; Oilseed Rape, 62 g ai/ha) | Plant response rating (scale of 0 to 100 where 0 is no effect and 100 is complete control) ([11]; 31 g ai/ha) | Plant response rating (scale of 0 to 100 where 0 is no effect and 100 is complete control) ([16]; 125 g ai/ha) | Plant response rating (scale of 0 to 100 where 0 is no effect and 100 is complete control) ([17]; 31 g ai/ha)
0: Plant response rating, Barnyardgrass, Flood [3] | Plant response rating (scale of 0 to 100 where 0 is no effect and 100 is complete control) ([10]; 31 g ai/ha) | Plant response rating, Wheat ([19]; 125 g ai/ha)
20: Plant response rating (scale of 0 to 100 where 0 is no effect and 100 is complete control) ([7]; 125 g ai/ha) | Plant response rating (scale of 0 to 100 where 0 is no effect and 100 is complete control) ([18]; 62 g ai/ha) | Plant response rating (scale of 0 to 100 where 0 is no effect and 100 is complete control) ([18]; 125 g ai/ha)
40: Plant response rating (scale of 0 to 100 where 0 is no effect and 100 is complete control) ([6]; Oilseed Rape, 31 g ai/ha) | Plant response rating, Foxtail, Giant ([20]; 125 g ai/ha)
5: Plant response rating (scale of 0 to 100 where 0 is no effect and 100 is complete control) ([1]; 31 g ai/ha) | Plant response rating (scale of 0 to 100 where 0 is no effect and 100 is complete control) ([1]; 62 g ai/ha) | Plant response rating (scale of 0 to 100 where 0 is no effect and 100 is complete control) ([1]; 125 g ai/ha) | Plant response rating (scale of 0 to 100 where 0 is no effect and 100 is complete control) ([1]; 250 g ai/ha) | Plant response rating (scale of 0 to 100 where 0 is no effect and 100 is complete control) ([9]; 31 g ai/ha) | Plant response rating (scale of 0 to 100 where 0 is no effect and 100 is complete control) ([10]; 62 g ai/ha) | Plant response rating (scale of 0 to 100 where 0 is no effect and 100 is complete control) ([10]; 125 g ai/ha) | Plant response rating (scale of 0 to 100 where 0 is no effect and 100 is complete control) ([14]; 31 g ai/ha) | Plant response rating (scale of 0 to 100 where 0 is no effect and 100 is complete control) ([14]; 62 g ai/ha)
75: Plant response rating (scale of 0 to 100 where 0 is no effect and 100 is complete control) ([11]; 125 g ai/ha)
90: Plant response rating (scale of 0 to 100 where 0 is no effect and 100 is complete control) ([5]; 250 g ai/ha) | Plant response rating, Pigweed ([12]; 125 g ai/ha) | Plant response rating, Pigweed ([12]; 500 g ai/ha, approx. 10 d) | Plant response rating, Foxtail, Giant ([20]; 500 g ai/ha)
80: Plant response rating (scale of 0 to 100 where 0 is no effect and 100 is complete control) ([2]; 31 g ai/ha) | Plant response rating (scale of 0 to 100 where 0 is no effect and 100 is complete control) ([5]; 31 g ai/ha) | Plant response rating (scale of 0 to 100 where 0 is no effect and 100 is complete control) ([6]; Oilseed Rape, 125 g ai/ha) | Plant response rating (scale of 0 to 100 where 0 is no effect and 100 is complete control) ([11]; 250 g ai/ha) | Plant response rating (scale of 0 to 100 where 0 is no effect and 100 is complete control) ([17]; 250 g ai/ha)
100: Plant response rating, Pigweed ([15]; 125 g ai/ha) | Plant response rating, Pigweed ([15]; 500 g ai/ha)
25: Plant response rating (scale of 0 to 100 where 0 is no effect and 100 is complete control) ([7]; 250 g ai/ha) | Plant response rating (scale of 0 to 100 where 0 is no effect and 100 is complete control) ([8]; 31 g ai/ha) | Plant response rating (scale of 0 to 100 where 0 is no effect and 100 is complete control) ([8]; 125 g ai/ha) | Plant response rating (scale of 0 to 100 where 0 is no effect and 100 is complete control) ([8]; 250 g ai/ha) | Plant response rating (scale of 0 to 100 where 0 is no effect and 100 is complete control) ([16]; 31 g ai/ha) | Plant response rating (scale of 0 to 100 where 0 is no effect and 100 is complete control) ([18]; 250 g ai/ha)
